{"source": "patent US20040023994A1", "about": "(priority 2002, published 2004)", "key": {"NCI-H23": {"system": "NCI-H23", "format": "cell-based", "details": "NCI-H23, Non-Small Cell Lung, 48 h"}, "MDA-MB-435": {"system": "MDA-MB-435", "details": "MDA-MB-435, Breast, 48 h"}, "SF-539": {"system": "SF-539", "details": "SF-539, CNS, 48 h"}, "RPMI-8226": {"system": "RPMI-8226", "details": "RPMI-8226, Leukemia, 48 h"}, "BT-549": {"system": "BT-549", "details": "BT-549, Breast, 48 h"}, "OVCAR-8": {"system": "OVCAR-8", "details": "OVCAR-8, Ovarian, 48 h"}, "SN12C": {"system": "SN12C", "format": "cell-based", "details": "Renal, 48 h"}}}
{"smiles": "CC(=O)C=CSc1nc(N)nc2nc[nH]c12", "note": "[trans-AVTG, 6-(2-acetylvinylthio) guanine]", "values": [{"measurement": "GI50", "setting": "NCI-H23", "value": 3.05, "unit": "µM"}, {"measurement": "TGI", "setting": "NCI-H23", "value": 16.3, "unit": "µM"}, {"measurement": "GI50", "setting": "MDA-MB-435", "value": 1.04, "unit": "µM"}, {"measurement": "TGI", "setting": "MDA-MB-435", "value": 12.9, "unit": "µM"}, {"measurement": "CC50", "setting": "MDA-MB-435; read-out: LC50", "value": 51.5, "unit": "µM"}, {"measurement": "GI50", "setting": "SF-539", "value": 0.81, "unit": "µM"}, {"measurement": "TGI", "setting": "SF-539", "value": 16.3, "unit": "µM"}, {"measurement": "CC50", "setting": "SF-539; read-out: LC50", "value": "> 100", "unit": "µM"}, {"measurement": "GI50", "setting": "CCRF-CEM; Leukemia, 48 h", "value": 0.14, "unit": "µM"}, {"measurement": "TGI", "setting": "CCRF-CEM; Leukemia, 48 h", "value": 1.83, "unit": "µM"}, {"measurement": "CC50", "setting": "CCRF-CEM; read-out: LC50, Leukemia, 48 h", "value": 54.8, "unit": "µM"}, {"measurement": "GI50", "setting": "RPMI-8226", "value": 0.24, "unit": "µM"}, {"measurement": "TGI", "setting": "RPMI-8226", "value": 3.19, "unit": "µM"}, {"measurement": "CC50", "setting": "RPMI-8226; read-out: LC50", "value": "> 100", "unit": "µM"}, {"measurement": "GI50", "setting": "BT-549", "value": 0.39, "unit": "µM"}, {"measurement": "TGI", "setting": "BT-549", "value": 5.75, "unit": "µM"}, {"measurement": "CC50", "setting": "BT-549; read-out: LC50", "value": 43.1, "unit": "µM"}, {"measurement": "GI50", "setting": "OVCAR-8", "value": 0.55, "unit": "µM"}, {"measurement": "TGI", "setting": "OVCAR-8", "value": ">100", "unit": "µM"}, {"measurement": "CC50", "setting": "OVCAR-8; read-out: LC50", "value": "> 100", "unit": "µM"}, {"measurement": "GI50", "setting": "SN12C", "value": 2.84, "unit": "µM"}, {"measurement": "TGI", "setting": "SN12C", "value": 14.3, "unit": "µM"}, {"measurement": "GI50", "setting": "LOX IMVI; Melanoma, 48 h", "value": 0.2, "unit": "µM"}, {"measurement": "TGI", "setting": "LOX IMVI; Melanoma, 48 h", "value": 2.39, "unit": "µM"}, {"measurement": "CC50", "setting": "LOX IMVI; read-out: LC50, Melanoma, 48 h", "value": 82.5, "unit": "µM"}]}
